Results taken from PMC5421785, “Citrullination only infrequently impacts peptide binding to HLA class II MHC” (PLoS ONE, 2017).
Read-outs that look alike come from different tables or passages of the source. Square brackets hold non-standard residues; d marks the D form. Peptide text beside a SMILES is read from it. Cit = NC(=O)NCCC[C@H](N)C(=O)O

Legend:
HLA-DRB1*04:01 = molecular target: T1, HLA-DRB1*04:01 (Homo sapiens, UniProt P01903+P01911, A100K/A169T/F76Y/I96L/K127E/L162R/M171V/N62H/P40V/Q125Y/R42H/S133A/S149N/S66Y/V115G/V209L/W38E); assay: HLA class II peptide binding, inhibition of radiolabeled peptide binding to purified MHC; details: for IC50: read-out: DRB1*04:01 binding capacity, Cit peptide (IC50 nM); for DRB1*04:01 binding capacity, WT/cit ratio: ratio of WT IC50 to Cit IC50
T1 construct: EBV transformed homozygous cell lines were used as sources of MHC molecules; endogenous in cells; host or cells: EBV transformed homozygous cell lines

HLA-DRB1*01:01 = molecular target: T2, HLA-DRB1*01:01 (Homo sapiens, UniProt P01903+P01911, A100R/D57E/F55L/F60I/F76Y/I96L/L162R/M171V/P40L/Q125E/R42F/V115G/Y59C); assay: as above; details: for IC50: read-out: DRB1*01:01 binding capacity, Cit peptide (IC50 nM); for DRB1*01:01 binding capacity, WT/cit ratio: ratio of WT IC50 to Cit IC50
T2 construct: EBV transformed homozygous cell lines were used as sources of MHC molecules; endogenous in cells; host or cells: EBV transformed homozygous cell lines

[1] = citrullinated 15-mer peptide (X = citrulline), purified HLA-DRB1*04:01
[2] = citrullinated 15-mer peptide (X = citrulline), purified HLA-DRB1*01:01
[3] = citrullinated 15-mer (X), purified MHC, inhibition of radiolabeled peptide binding, dash = IC50 >40,000 nM

Structure (SMILES)	IC50 (HLA-DRB1*04:01; [1]) [nM]	IC50 (HLA-DRB1*01:01; [2]) [nM]	IC50 (HLA-DRB1*04:01; [3]) [nM]	DRB1*04:01 binding capacity, WT/cit ratio (HLA-DRB1*04:01)	IC50 (HLA-DRB1*01:01; [3]) [nM]	DRB1*01:01 binding capacity, WT/cit ratio (HLA-DRB1*01:01)
CC(C)[C@H](NC(=O)CNC(=O)[C@H](C)NC(=O)[C@H](C)N)C(=O)N[C@@H](CCCCN)C(=O)NCC(=O)N[C@@H](CC(=O)O)C(=O)N[C@@H](CCCNC(N)=O)C(=O)NCC(=O)N[C@@H](CCC(=O)O)C(=O)N[C@H](C(=O)NCC(=O)N[C@@H](C)C(=O)N[C@H](C(=O)NCC(=O)O)C(C)C)[C@@H](C)O [AAGVKGDXGETGAVG] (H-AAGVKGD[Cit]GETGAVG-OH)	> 40000	2010	–	–	–	–
CC(C)C[C@H](NC(=O)[C@H](C)NC(=O)[C@H](CC(=O)O)NC(=O)[C@H](CC(N)=O)NC(=O)[C@H](CC(N)=O)NC(=O)[C@H](CCCNC(=N)N)NC(=O)[C@H](CC(N)=O)NC(=O)[C@H](C)NC(=O)[C@H](C)N)C(=O)N[C@@H](CCCNC(N)=O)C(=O)N[C@@H](CCC(N)=O)C(=O)N[C@@H](C)C(=O)N[C@@H](CCCCN)C(=O)N[C@@H](CCC(N)=O)C(=O)N[C@@H](CCC(=O)O)C(=O)O [AANRNNDALXQAKQE] (H-AANRNNDAL[Cit]QAKQE-OH; N-terminus and C-terminus assumed)	–	–	> 40000	1.0	> 40000	1.0
CC(C)C[C@H](NC(=O)[C@H](C)NC(=O)[C@H](CC(=O)O)NC(=O)[C@H](CC(N)=O)NC(=O)[C@H](CC(N)=O)NC(=O)[C@H](CCCNC(N)=O)NC(=O)[C@H](CC(N)=O)NC(=O)[C@H](C)NC(=O)[C@H](C)N)C(=O)N[C@@H](CCCNC(=N)N)C(=O)N[C@@H](CCC(N)=O)C(=O)N[C@@H](C)C(=O)N[C@@H](CCCCN)C(=O)N[C@@H](CCC(N)=O)C(=O)N[C@@H](CCC(=O)O)C(=O)O [AANXNNDALRQAKQE] (H-AAN[Cit]NNDALRQAKQE-OH; N-terminus and C-terminus assumed)	–	–	> 40000	1.0	> 40000	1.0
CC(C)C[C@H](NC(=O)[C@H](C)NC(=O)[C@H](CC(=O)O)NC(=O)[C@H](CC(N)=O)NC(=O)[C@H](CC(N)=O)NC(=O)[C@H](CCCNC(=N)N)NC(=O)[C@H](CC(N)=O)NC(=O)[C@H](C)NC(=O)[C@H](C)NC(=O)[C@H](CCC(=O)O)NC(=O)[C@H](CO)NC(=O)[C@H](CC(C)C)NC(=O)[C@H](CC(=O)O)NC(=O)[C@H](C)N)C(=O)N[C@@H](CCCNC(N)=O)C(=O)O [ADLSEAANRNNDALX] (H-ADLSEAANRNNDAL[Cit]-OH)	–	–	23300	–	6180	–
CC(C)C[C@H](NC(=O)[C@H](C)NC(=O)[C@H](CC(=O)O)NC(=O)[C@H](CC(N)=O)NC(=O)[C@H](CC(N)=O)NC(=O)[C@H](CCCNC(N)=O)NC(=O)[C@H](CC(N)=O)NC(=O)[C@H](C)NC(=O)[C@H](C)NC(=O)[C@H](CCC(=O)O)NC(=O)[C@H](CO)NC(=O)[C@H](CC(C)C)NC(=O)[C@H](CC(=O)O)NC(=O)[C@H](C)N)C(=O)N[C@@H](CCCNC(=N)N)C(=O)O [ADLSEAANXNNDALR] (H-ADLSEAAN[Cit]NNDALR-OH)	–	–	22200	–	7340	–
CC(C)C[C@H](NC(=O)CNC(=O)[C@H](CCCNC(=N)N)NC(=O)[C@H](CCC(=O)O)NC(=O)CNC(=O)[C@@H]1CCCN1C(=O)[C@H](CCC(=O)O)NC(=O)CNC(=O)[C@H](C)N)C(=O)N[C@@H](CCCCN)C(=O)NCC(=O)N[C@@H](Cc1c[nH]cn1)C(=O)N[C@@H](CCCNC(N)=O)C(=O)NCC(=O)N[C@@H](Cc1ccccc1)C(=O)O [AGEPGERGLKGHXGF] (H-AGEPGERGLKGH[Cit]GF-OH)	> 40000	594	–	–	–	–
CC(C)C[C@H](NC(=O)CNC(=O)[C@H](CCCNC(N)=O)NC(=O)[C@H](CCC(=O)O)NC(=O)CNC(=O)[C@@H]1CCCN1C(=O)[C@H](CCC(=O)O)NC(=O)CNC(=O)[C@H](C)N)C(=O)N[C@@H](CCCCN)C(=O)NCC(=O)N[C@@H](Cc1c[nH]cn1)C(=O)N[C@@H](CCCNC(=N)N)C(=O)NCC(=O)N[C@@H](Cc1ccccc1)C(=O)O [AGEPGEXGLKGHRGF] (H-AGEPGE[Cit]GLKGHRGF-OH)	> 40000	783	–	–	–	–
CC[C@H](C)[C@H](NC(=O)[C@H](C)N)C(=O)N[C@@H](CC(N)=O)C(=O)N[C@H](C(=O)N[C@@H](CCC(=O)O)C(=O)N[C@@H](Cc1ccccc1)C(=O)N[C@@H](CCCCN)C(=O)N[C@@H](CC(N)=O)C(=O)N[C@H](C(=O)N[C@@H](CCCNC(N)=O)C(=O)N[C@H](C(=O)N[C@@H](CC(N)=O)C(=O)N[C@@H](CCC(=O)O)C(=O)N[C@@H](CCCCN)C(=O)N[C@H](C(=O)O)C(C)C)[C@@H](C)O)[C@@H](C)O)[C@@H](C)O [AINTEFKNTXTNEKV] (H-AINTEFKNT[Cit]TNEKV-OH)	–	–	931	–	2370	–
